Results on 20 compounds are retold here after patent US8883782B2, “Spiro-tetracyclic ring compounds as beta-secretase modulators and methods of use” (Amgen Inc., priority 2010, dated 2014).

Assay [1] has as its system Aβ40 in conditioned medium of cells stably expressing Amyloid Precursor Protein (APP). As to the kind of experiment: In vitro BACE cell-based assay (Aβ40 in conditioned medium, sandwich ELISA). The procedure, abridged:
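Conditioned medium from stably APP-expressing cells treated with compound dose series is assayed for Aβ40 by sandwich ELISA with time-resolved fluorescence detection. IC50 is calculated from percent inhibition of Aβ40 against compound concentration.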

For assay [2], the target named is Beta Secretase enzyme (BACE) (Homo sapiens, UniProt P56817). The assay can be described thus: In vitro enzymatic BACE FRET (fluorescence resonance energy transfer) assay. The class given is biochemical. The method, boiled down:
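Acetate buffer (0.05 M, pH 4.2), 10% DMSO final, 100 uM nonionic detergent genapol. Substrate addition (50 nM FRET peptide) initiates; one-hour incubation; Tris raises pH to neutrality before fluorescence measurement.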

Assay [3] relates to Abeta 40 in cerebrospinal fluid (CSF) and brain. The assay can be described thus: In vivo inhibition of beta-secretase (Abeta 40 reduction in CSF and brain). Conditions: rat, after 4 hrs; for inhibition in vivo at 3 mg/kg: Abeta 40, 3 mpk; for inhibition in vivo at 10 mg/kg: Abeta 40, 10 mg/kg (10 mpk). The text has this:
In Vivo Inhibition of Beta-Secretase
Several animal models, including mouse, rat, dog, and monkey, may be used to screen for inhibition of beta-secretase activity in vivo following administration of a test compound sample. Animals used in this invention can be wild type, transgenic, or gene knockout animals. […] A separate group of animals receive 2% hydroxypropyl methylcellulose, 1% Tween80 alone, containing no test compound, and serve as a vehicle-control group. At the end of the test period, animals are sacrificed and brain tissues, plasma or cerebrospinal fluid are collected. […] Homogenates are centrifuged at 355,000 g, 4° C. for 30 minutes. CSF or brain supernatants are then analyzed for the presence of A-beta peptide by specific sandwich ELISA assays based on ECL (Electrochemiluminescence) technology. For example, rat Abeta40 is measured using biotinylated-4G8 (Signet) as a capture antibody and Fab40 (an in-house antibody specific to the C-terminal of Abeta40) as a detection antibody.
Actual vehicles used: Oral: 2% HPMC, 1% Tween80, pH 2.2

Where [4] appears, read: Homo sapiens, HEK293, average IC50, read-out: HEK cell assay.
The mark [5] stands for this setting: average IC50, enzyme assay, read-out: BACE 1 FRET assay.
Where [6] appears, read: CSF, read-out: CSF A-beta reduction % at 3 mpk.
Setting [7] is: brain, read-out: Brain A-beta reduction % at 3 mpk.
Where [8] appears, read: Homo sapiens, HEK293, average IC50, HEK cells, read-out: HEK cell assay.
Where [9] appears, read: CSF, read-out: CSF A-beta reduction % at 10 mg/kg.
The mark [10] stands for this setting: brain, read-out: Brain A-beta reduction % at 10 mg/kg.

Structures are written as SMILES. Like-named read-outs stand apart in the source and are kept apart here. Bounds are passed on as bounds.

Chain of Beta Secretase enzyme (BACE) (P56817 46-501, species assumed): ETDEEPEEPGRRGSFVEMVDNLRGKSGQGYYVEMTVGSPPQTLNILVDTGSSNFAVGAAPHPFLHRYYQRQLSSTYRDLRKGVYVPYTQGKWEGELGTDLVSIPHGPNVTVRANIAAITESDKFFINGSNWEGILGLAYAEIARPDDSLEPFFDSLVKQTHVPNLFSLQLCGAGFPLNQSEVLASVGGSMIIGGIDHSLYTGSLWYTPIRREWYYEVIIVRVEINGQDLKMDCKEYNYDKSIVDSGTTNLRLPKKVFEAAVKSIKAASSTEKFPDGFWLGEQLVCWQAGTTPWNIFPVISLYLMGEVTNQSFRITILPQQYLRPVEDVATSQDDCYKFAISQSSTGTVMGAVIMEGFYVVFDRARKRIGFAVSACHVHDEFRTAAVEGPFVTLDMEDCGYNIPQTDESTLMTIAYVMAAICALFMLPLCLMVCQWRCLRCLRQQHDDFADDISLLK

Regarding `CC#Cc1cncc(-c2ccc3c(c2)[C@@]2(COC(N)=N2)c2cc(-c4cccnc4)nc(F)c2O3)c1` [Example 759, (S)-1-fluoro-7-(5-(prop-1-ynyl)pyridin-3-yl)-3-(pyridin-3-yl)-5′H-spiro[chromeno[2,3-c]pyridine-5,4′-oxazol]-2′-amine], the IC50 in assay [1] (setting [4]) turned out to be 0.003 µM; in assay [2] (setting [5]), 0.0004 µM. The inhibition in vivo at 3 mg/kg in assay [3] (setting [6]) and in assay [3] (setting [7]) was 43% throughout.

Turning to `NC1=N[C@@]2(CO1)c1cc(-c3cccnc3)ccc1Oc1cnc(N3CCC(F)(F)CC3)cc12` [Example 402, (5S)-3-(4,4-difluoro-1-piperidinyl)-7-(3-pyridinyl)spiro[chromeno[2,3-c]pyridine-5,4′-[1,3]oxazol]-2′-amine], the IC50 in assay [1] (setting [8]) amounted to 0.0131 µM; in assay [2] (setting [5]), 0.0024 µM. Moreover, the figures for the inhibition in vivo at 10 mg/kg in assay [3] (setting [9]) and in assay [3] (setting [10]) were 52% and 28%, respectively.

Turning to `NC1=N[C@@]2(CS1)c1cc(-c3cccnc3F)ccc1Oc1cnc(N3CCOCC3)cc12` [Example 999, (S)-7-(2-fluoropyridin-3-yl)-3-morpholino-5′H-spiro[chromeno[2,3-c]pyridine-5,4′-thiazol]-2′-amine], the figures for the IC50 in assay [1] (setting [4]) and in assay [2] (setting [5]) were 0.014 µM and 0.0005 µM, respectively. Further, the “CSF A-beta reduction % at 5 mpk” value in assay [3] (CSF, Abeta 40, 5 mpk) stood at 58% at 5 mpk. For the same compound, the “Brain A-beta reduction % at 5 mpk” value in assay [3] (brain, Abeta 40, 5 mpk) is 40% at 5 mpk.

For `NC1=N[C@@]2(CS1)c1cc(-c3cccnc3F)ccc1Oc1c(F)cc(N3C[C@@H]4C[C@H]3CO4)cc12` [Example 1084, (S)-2′-((1S,4S)-2-oxa-5-azabicyclo[2.2.1]heptan-5-yl)-4′-fluoro-7′-(2-fluoropyridin-3-yl)-5H-spiro[thiazole-4,9′-xanthen]-2-amine], the IC50 is 0.102 µM in assay [1] (setting [4]) and 0.0075 µM in assay [2] (setting [5]). The results for the inhibition in vivo at 10 mg/kg in assay [3] (setting [9]) and in assay [3] (setting [10]) were 67% and 50%, respectively.

For `NC1=N[C@@]2(CO1)c1cc(-c3cccnc3)ccc1Oc1cnc(N3CCC(F)(F)C3)cc12` [Example 138, (S)-3-(3,3-difluoropyrrolidin-1-yl)-7-(pyridin-3-yl)-5′H-spiro[chromeno[2,3-c]pyridine-5,4′-oxazol]-2′-amine], the IC50 in assay [1] (setting [8]) is 0.0052 µM; in assay [2] (setting [5]) it was 0.0011 µM. Besides, the inhibition in vivo at 10 mg/kg was 67% in assay [3] (setting [9]) and 48% in assay [3] (setting [10]).

As to `Cc1cnc(F)c(-c2ccc3c(c2)[C@@]2(COC(N)=N2)c2cc(N4CCOCC4)cc(F)c2O3)c1` [Example 132, (S)-4′-fluoro-7′-(2-fluoro-5-methylpyridin-3-yl)-2′-morpholino-5H-spiro[oxazole-4,9′-xanthen]-2-amine], the figures for the IC50 in assay [1] (setting [4]) and in assay [2] (setting [5]) were 0.006 µM and 0.0015 µM, respectively. The results for the inhibition in vivo at 10 mg/kg in assay [3] (setting [9]) and in assay [3] (setting [10]) were 54% and 45%, respectively.

Regarding `CC1(C#Cc2cc3c(nc2F)Oc2ccc(-c4cccnc4F)cc2[C@@]32COC(N)=N2)COC1` [Example 901, (5S)-2-fluoro-7-(2-fluoro-3-pyridinyl)-3-((3-methyl-3-oxetanyl)ethynyl)spiro[chromeno[2,3-b]pyridine-5,4′-[1,3]oxazol]-2′-amine], the IC50 in assay [1] (average IC50, HEK cells, read-out: HEK cell assay) came out at 0.011 µM; in assay [2] (setting [5]), 0.0005 µM. The figures for the inhibition in vivo at 10 mg/kg in assay [3] (setting [9]) and in assay [3] (setting [10]) were 56% and 44%, respectively.

Turning to `NC1=N[C@@]2(CO1)c1cc(-c3cccnc3F)ccc1Oc1c(F)cc(-c3ncccn3)cc12` [Example 128, (S)-4′-fluoro-7′-(2-fluoropyridin-3-yl)-2′-(pyrimidin-2-yl)-5H-spiro[oxazole-4,9′-xanthen]-2-amine], the IC50 in assay [1] (setting [4]) stood at 0.0082 µM; in assay [2] (setting [5]), 0.0011 µM. The values for the inhibition in vivo at 10 mg/kg in assay [3] (setting [9]) and in assay [3] (setting [10]) were 75% and 57%, respectively.

With `NC1=N[C@@]2(CO1)c1cc(-c3cccnc3F)c(F)cc1Oc1c(F)cc(C3=CCOCC3)cc12` (single isomer, unassigned) [Example 867], the IC50 in assay [1] (Homo sapiens, HEK293, read-out: HEK cell assay (uM), average IC50, HEK cells) was 0.005 µM; in assay [2] (BACE 1 FRET assay (uM)), 0.0003 µM. The inhibition in vivo at 10 mg/kg in assay [3] (setting [9]) came to 56%; in assay [3] (setting [10]) it was 39%.

As to `NC1=N[C@@]2(CO1)c1cc(-c3cccnc3)ccc1Oc1c2cc(C2=CCCOC2)nc1F` [Example 745, (5S)-3-(5,6-dihydro-2-H-pyran-3-yl)-1-fluoro-7-(3-pyridinyl)spiro[chromeno[2,3-c]pyridine-5-4′-[1,3]oxazol]-2′-amine], the figures for the IC50 in assay [1] (setting [4]) and in assay [2] (setting [5]) were 0.004 µM and 0.0004 µM, respectively. In addition, the figures for the inhibition in vivo at 10 mg/kg in assay [3] (setting [9]) and in assay [3] (setting [10]) were 78% and 69%, respectively.

In the case of `NC1=N[C@@]2(CS1)c1cc(-c3cccnc3F)ccc1Oc1cnc(C3=CCCOC3)cc12` [Example 928, (S)-3-(5,6-dihydro-2H-pyran-3-yl)-7-(2-fluoropyridin-3-yl)-5′H-spiro[chromeno[2,3-c]pyridine-5,4′-thiazol]-2′-amine], the IC50 in assay [1] (setting [8]) is 0.008 µM; in assay [2] (setting [5]) it was 0.0004 µM. The inhibition in vivo at 10 mg/kg stood at 82% in assay [3] (setting [9]) and 71% in assay [3] (setting [10]).

Consider `CC(C)(C)C#Cc1cnc2c(c1)[C@]1(COC(N)=N1)c1cc(-c3cncnc3)c(F)cc1O2` [Example 339, (S)-3-(3,3-dimethylbut-1-yn-1-yl)-8-fluoro-7-(pyrimidin-5-yl)-5′H-spiro[chromeno[2,3-b]pyridine-5,4′-oxazol]-2′-amine], for which the IC50 in assay [1] (average IC50, read-out: HEK cell assay) turned out to be 0.0144 µM. Moreover, the inhibition in vivo at 10 mg/kg in assay [3] (setting [9]) was found to be 56%; in assay [3] (setting [10]) it was 29%.

For the compound `NC1=N[C@@]2(CO1)c1cc(-c3cccnc3F)ccc1Oc1c2cc(C2=CCCOC2)nc1F` [Example 688, (5S)-3-(5,6-dihydro-2H-pyran-3-yl)-1-fluoro-7-(2-fluoro-3-pyridinyl)spiro[chromeno[2,3-c]pyridine-5,4′-[1,3]oxazol]-2′-amine], in assay [1] (setting [8]), the IC50 amounted to 0.005 µM. The values for the inhibition in vivo at 3 mg/kg in assay [3] (setting [6]) and in assay [3] (setting [7]) were 74% and 75%, respectively.

Consider `NC1=N[C@@]2(CS1)c1cc(-c3cccnc3F)ccc1Oc1cnc(-c3ccnc(F)c3)cc12` [Example 1000, (S)-7-(2-fluoropyridin-3-yl)-3-(2-fluoropyridin-4-yl)-5′H-spiro[chromeno[2,3-c]pyridine-5,4′-thiazol]-2′-amine], for which the IC50 in assay [1] (setting [4]) amounted to 0.023 µM. In assay [3] (CSF, Abeta 40, 30 mpk), the “CSF A-beta reduction % at 30 mpk” value is recorded as 63% at 30 mpk. Also, the “Brain A-beta reduction % at 30 mpk” value in assay [3] (brain, Abeta 40, 30 mpk) worked out at 60% at 30 mpk.

In the case of `N#Cc1ccncc1-c1ccc2c(c1)[C@@]1(COC(N)=N1)c1cc(Cl)ncc1O2` [Example 655, 3-((5S)-2′-amino-3-chlorospiro[chromeno[2,3-c]pyridine-5,4′-[1,3]oxazol]-7-yl)-4-pyridinecarbonitrile], the values for the IC50 in assay [1] (setting [8]) and in assay [2] (setting [5]) were 10 µM and 0.6 µM, respectively.

For the compound `Cc1cncc(-c2ccc3c(c2)[C@@]2(COC(N)=N2)c2cc(C4=CCOCC4)cc(F)c2O3)c1` [Example 446, (4S)-2′-(3,6-dihydro-2H-pyran-4-yl)-4′-fluoro-7′-(5-methyl-3-pyridinyl)spiro[1,3-oxazole-4,9′-xanthen]-2-amine], the IC50 came to 0.0054 µM in assay [1] (setting [8]) and 0.0019 µM in assay [2] (setting [5]).

As to `CC(C)(C)COc1cc(F)c2c(c1)[C@@]1(COC(N)=N1)c1cc(-c3cncnc3)c(F)cc1O2` [Example 525, (4R)-7′-(2,2-dimethylpropoxy)-3′,5′-difluoro-2′-(5-pyrimidinyl)spiro[1,3-oxazole-4,9′-xanthen]-2-amine], the results for the IC50 in assay [1] (setting [8]) and in assay [2] (setting [5]) were 2.39 µM and 0.159 µM, respectively.

As to `CC(C)(C#N)COc1cc(F)c2c(c1)[C@]1(COC(N)=N1)c1cc(-c3cnccn3)ccc1O2` [Example 93, (S)-3-(2-amino-5′-fluoro-2′-(pyrazin-2-yl)-5H-spiro[oxazole-4,9′-xanthene]-7′-yloxy)-2,2-dimethylpropanenitrile], the IC50 in assay [1] (setting [4]) was found to be 0.0146 µM; in assay [2] (setting [5]), 0.0028 µM.

Regarding `COc1ccnc(F)c1-c1ccc2c(c1)[C@@]1(COC(N)=N1)c1cc(Cl)ncc1O2` [Example 680, (5S)-3-chloro-7-(2-fluoro-4-methoxy-3-pyridinyl)spiro[chromeno[2,3-c]pyridine-5,4′-[1,3]oxazol]-2′-amine], the IC50 in assay [1] (setting [8]) was determined as 0.806 µM; in assay [2] (setting [5]), 0.0153 µM.

Take `NC1=N[C@]2(CO1)c1cc(-c3cccnc3F)ccc1Oc1nc(F)c(N3CCOCC3)cc12` [Example 904, (5R)-2-fluoro-7-(2-fluoro-3-pyridinyl)-3-(4-morpholinyl)spiro[chromeno[2,3-b]pyridine-5,4′-[1,3]oxazol]-2′-amine]: the IC50 is not below 10 µM in assay [1] (setting [8]) and 0.269 µM in assay [2] (setting [5]).
